Where a name gives a salt, the structure may show the parent alone. Read-outs that look alike come from different tables or passages of the source.
Tests used:
[1] = tested on: arrythmogenic and lethal effects of calcium chloride; assay: Antagonism towards the arrhythmogenic and lethal effects of calcium chloride in mice (ECG); assay type: in vivo
Protocol: (§1) In the experiments on white mice narcotized with urethane ECGs were recorded in the second standard lead. A 2% solution of calcium chloride was injected into the tail vein at a constant rate (00.1 ml during 2 seconds).

Solubility in water = assay type: physicochemical
[2] = tested on: experimental models of arrhythmia; assay: Antiarrhythmic activity on experimental models of arrhythmia (calcium, aconitic and strophanthin), overall; assay type: in vivo, mice, rats, guinea pigs; details: for antiarrhythmic activity: in vivo
Protocol: The action of 2-(2,6-dimethyl-3,5-diethoxycarbonyl-1,4-dihydropyridine-4-carboxamide) glutaric acid and its disodium salt on the cardiovascular system was studied in experiments with mice, rats, guinea pigs and cats. […] Antiarrhythmic agents such as quinidine and novocaine amide (procaine amide) were used for comparisons in the […] study.
as §1
(§2) Comparative study of the antiarrhythmic activity of the compounds on an aconitic model of arrhythmia was carried out on albino rats narcotized with urethane and chloralose (intraperitoneally), ECGs were recorded in the second standard lead.
Guinea pigs were narcotized with urethane and chloralose then strophanthin was administered in them, and against the background of arrhythmia, the above compound was administered intravenously. The doses of the compound, that arrest the strophanthin arrhythmia in the guinea pigs were recorded.

Aconitic arrhythmia = assay: Antiarrhythmic activity on aconitic model of arrhythmia in rats; assay type: in vivo, albino rats; details: for ED50: Rattus norvegicus, ip, read-out: ED50, aconitic arrhythmia in rats (average effective antiarrhythmic dose)
Protocol: as §2

Strophanthin arrhythmia = assay: Arrest of strophanthin arrhythmia in guinea pigs; assay type: in vivo; details: for ED50: Cavia porcellus, read-out: ED50, strophanthin arrhythmia in guinea pigs
in vivo = details: mouse, in vivo, ip
Description: (§3) Acute toxicity was investigated on mongrel white mice of both sexes (Table 2).

white mice = assay: in vivo; details: intraperitoneal
Description: as §3

cardiovascular system = assay: Acute experiments in narcotized cats: arterial pressure, respiration, ECG and haemodynamic effects of acetyl choline; assay type: in vivo
Protocol: In acute experiments with cats narcotized with chloralose and urethane arterial pressure, respiration and ECG were recorded. The influence of the above comound on the arterial pressure, respiration, and on the haemodynamic effects of acetyl choline were investigated. Anaqueous solution of the compound was administered intravenously.

cardiac arrhythmia = details: cited from earlier work; for antiarrhythmic activity / effect on arterial pressure (side-effect): medical practice; for antiarrhythmic activity / effect on arterial pressure (side-effect) / toxicity: prior art
[3] = compound dose 3 mg/kg intraperitoneally
[4] = compound dose 6 mg/kg intraperitoneally
[5] = compound dose 10 mg/kg intraperitoneally
[6] = guinea pigs, intravenous, against background of arrhythmia
[7] = strophanthin arrhythmia, guinea pigs
[8] = cats, intravenous, 0.1-0.2 g/kg
[9] = compound dose 30 mg/kg intraperitoneally

SMILES | solubility in water (Solubility in water) | antiarrhythmic activity [2] | Dose of CaCl2, arrhythmogenic [1, 3] | Dose of CaCl2, lethal [1, 3] | Dose of CaCl2, arrhythmogenic [1, 5] | Dose of CaCl2, lethal [1, 5] | ED50 (Aconitic arrhythmia) | ED50 (Strophanthin arrhythmia; [6]) | LD50 (in vivo) | antiarrhythmic activity (cardiac arrhythmia) | effect on arterial pressure (side-effect) (cardiac arrhythmia) | toxicity (cardiac arrhythmia) | other results
CCOC(=O)C1=C(C)NC(C)=C(C(=O)OCC)C1C(=O)NC(CCC(=O)O)C(=O)O (stereo not shown) [Compound of formula I, 2-(2,6-dimethyl-3,5-diethoxycarbonyl-1,4-dihydropyridine-4-carboxamide) glutaric acid] | hardly soluble in water | pronouncedantiarrhythmic activity |  |  |  |  |  |  |  |  |  |  | antiarrhythmic effect compared with novocaine amide ([1]; novocaine amide dose 30 mg/kg, CaCl2 model, mice): same antiarrhythic effect as novocaine amide in a dose of 30 mg/kg
CCOC(=O)C1=C(C)NC(C)=C(C(=O)OCC)C1C(=O)NC(CCC(=O)O)C(=O)O (stereo not shown) [Compound of formula II, disodium salt of 2-(2,6-dimethyl-3,5-diethoxycarbonyl-1,4-dihydropyridine-4-carboxamide) glutaric acid] | well soluble in water | pronounced antiarrhythmic activity | 98.4 mg/kg | 105.0 mg/kg | 130.5 mg/kg | 140.5 mg/kg | 3 ± 0.5 mg/kg | 2.1 ± 0.3 mg/kg | > 2000 mg/kg |  |  |  | Dose of CaCl2, arrhythmogenic [1, 4]: 127.4 mg/kg; Dose of CaCl2, lethal [1, 4]: 134.5 mg/kg; effect on arrhythmogenic and lethal doses of calcium chloride ([1]; preliminary administration 20-30 minutes prior to narcosis, mice): considerably increases; antiarrhythmic activity compared with quinidine and novocaine amide (Aconitic arrhythmia; aconitic model, rats, intraperitoneal 30-40 minutes before aconitine): higher antiarrhythmic activity than quinidine and novocane amide; effect on experimental strophanthin arrhythmia (Strophanthin arrhythmia; guinea pig, in vivo): stable effect; activity compared with quinidine (Strophanthin arrhythmia; [7]): not inferior to quinidine; activity relative to novocaine amide (Strophanthin arrhythmia; [7]): approximately 25 fold; toxicity relative to novocaine amide (white mice; mice): 1/17; toxicity relative to quinidine (white mice; mice): 1/12; change in arterial pressure (cardiovascular system; [8]): does not cause any significant change; change in pulse rate (cardiovascular system; [8]): does not cause any significant change; change in respiration rate (cardiovascular system; [8]): does not cause any significant change; response reaction to acetyl choline (cardiovascular system; cats, intravenous, doses of up to 4 mg/kg): does not reduce the response reaction to acetyl choline; drop of the arterial pressure (cardiovascular system; intravenous application): does not cause a drastic drop of the arterial pressure; activity on experimental models of arrhythmia compared with quinidine and novocaine amide ([2]; calcium, aconitic and strophanthin models): higher activity on all kinds of experimental models of arrhythmia
CCN(CC)CCNC(=O)c1ccc(N)cc1 [Novocaine amide, reference compound] |  |  |  |  | 116.0 mg/kg | 120.0 mg/kg | 45 ± 5 mg/kg | 55 ± 7.3 mg/kg | 290 mg/kg | insufficient antiarrthythmic activity | drastically reduce the arterial pressure | toxic | Dose of CaCl2, arrhythmogenic [1, 9]: 127.0 mg/kg; Dose of CaCl2, lethal [1, 9]: 138.0 mg/kg
C=C[C@H]1C[N@@]2CC[C@H]1C[C@@H]2[C@@H](O)c1ccnc2ccc(OC)cc12 [Quinidine, reference compound] |  |  | 126.9 mg/kg | 136.0 mg/kg | 120.8 mg/kg | 133.5 mg/kg | 4.3 ± 0.6 mg/kg |  | 156 mg/kg | insufficient antiarrthythmic activity | drastically reduce the arterial pressure | toxic | ED50 (Strophanthin arrhythmia; iv): 2.3 ± 0.4 mg/kg; Acute toxicity, LD50 (white mice; white mice, confidence limit at P = 0.05): 156 mg/kg; effect on strophanthin arrhythmia, in clinic (cardiac arrhythmia; clinic): in some cases is ineffective

Source: patent US4485239A, “2-(2,6-Dimethyl-3,5-diethoxycarbonyl-1,4-dihydropyridine-4-carboxamide glutaric acid its disodium salt and method of their preparation” (priority 1982, dated 1984)
